One experiment deals with common houseflies. Nature of the experiment: Controlling effect on common housefly, treated filter paper with sucrose bait. In kind it is in vivo. The conditions noted are these: Musca domestica, 24 h, read-out: Mortality rate. The procedure:
Liquid medicines for a test were prepared by diluting a formulation of the compound 28 of the present invention, which was obtained from Formulation Example 5, with water so that the concentration of the active ingredients becomes 500 ppm.
A filter paper having a diameter of 5.5 cm was spread on the bottom of a polyethylene cup having the same size as that of the filter paper, 0.7 ml ml of any one of the above-described liquid medicines for a test was added dropwise onto the filter paper, and 30 mg of sucrose was uniformly put therein as bait. 10 female imagoes of common houseflies were released in the polyethylene cup, which was then covered with a lid. The number of live and dead common houseflies were checked after 24 hours and the mortality rate was obtained using the following formula.
Mortality(%)=(the number of dead insectse/the number of insects provided for a test)×100

The subject of experiment [1] is summer fruit tortrix moths (Adoxophyes orana). The experiment is described as follows: Controlling effect on summer fruit tortrix moth, treated artificial feed. It counts as in vivo. The conditions noted are these: 168 h. The procedure: Liquid medicines for a test were prepared by diluting each formulation of the compounds 1, 3, 6, 10, 12, 16, 17, 20, 21, 23, 26 to 29, 33, 38, and 42 of the present invention, which were obtained from Formulation Example 5, with water so that the concentration of the active ingredients becomes 500 ppm.
Silk Mates 2S (artificial feed: Nosan Corporation), which were sliced in a thickness of 2 mm, were placed on the bottom of polyethylene cups and 1 mL of each of the above-described liquid medicines for a test was irrigated thereto.
After air-drying, 30 first-instar larvae of summer fruit tortrix moths (Adoxophyes orana) were released in each cup, which was then covered with a lid. The cups were stored at 25° C., the number of surviving insects was counted after 7 days, and the mortality rate was obtained using the following formula.
Mortality(%)=(the number of dead insects/the number of insects provided for a test)×100

Another experiment has as its system cotton aphids. Nature of the experiment: Controlling effect on cotton aphid, spray on inoculated cucumber seedlings. In kind it is in vivo, Aphis gossypii. The settings on record: 144 h; 500 ppm active ingredient, 20 ml sprayed on cucumber seedlings with about 30 cotton aphids, 6 days after spraying.

Where only a bound is given, the exact number is not on record here.

As for `COc1ccccc1C(=O)NCC1(c2ccccc2)CCN(CCc2ccccc2C(F)(F)F)CC1` [compound 28, 2-methoxy-N-((4-phenyl-1-(2-(trifluoromethyl)phenethyl)piperidin-4-yl)methyl)benzamide], the figures for the mortality at 500 ppm (in the experiment with common houseflies; in experiment [1]) were not below 70% and not below 90%, respectively. In the experiment on cotton aphids, the pest or weed control (commonly how far the test organism was held down) at 500 ppm is not below 90%.

For the origin of these results see patent US20150126516A1, “PIPERIDINE COMPOUND AND ITS USE IN PEST CONTROL” (Sumitomo Chemical Company, Limited, priority 2012, published 2015).
